Patent US5284999A, “DNA encoding a pituitary-specific thyroid hormone receptor” (Brigham and Women's Hospital, priority 1993, dated 1994)

Tested on: r-ErbAβ-2 protein (PSTHR, pituitary-specific thyroid hormone receptor)
Test: Competition experiments with thyroid hormone analogs on r-ErbAβ-2 protein
Format: binding, rat

O=C(O)Cc1cc(I)c(Oc2ccc(O)c(I)c2)c(I)c1 [triac, 3,5,3'-triiodothyrocetic acid]
affinity of the r-ErbAβ-2 protein (rank order among analogs): greatest
